Measurements from article PMC6692352, “DF2726A, a new IL-8 signalling inhibitor, is able to counteract chemotherapy-induced neuropathic pain” (Scientific Reports, 2019).
Entries after “also recorded” stand apart in the source; their conditions may differ.

How the values were obtained:
[1] = test system: paclitaxel-induced mechanical and cold allodynia; experiment: Paclitaxel-induced mechanical and cold allodynia; format: in vivo; conditions: 30 mg/kg os for 14 days, rats
Procedure: 5/8 inch needles; Chemil s.r.l., Padova, Italy) at 0.08, 0.5, 1, 3, 6, 12, 24, 36 and 48 h for i.v. dosing and at 0.25, 0.5, 1, 3, 6, 12, 24, 36 and 48 h for oral dosing. After each blood withdrawal, the catheters were washed with 0.15-0.2 mL of sterile physiological saline and filled with 0.03 mL of heparin saline solution (0.25 U.I/mL). The heparinized blood was immediately centrifuged (8000 RPM for 5 min at approximately 4°C) and the resultant plasma transferred into vials and stored at - 20°C until analysis. DF2726A concentrations were quantified by HLPC-MS/MS using a chromatographic method with a lower limit of quantitation of 1 ng·mL -1. Non-compartmental analysis (Gibaldi and Perrier, 1982) were used to calculate the pharmacokinetic parameters using a MKModel by Nick Holford software Version 4, (Biosoft, Ferguson, MO 63 135, USA).
DF2726A was administered at a dose of 30 mg/2ml/kg/os for 14 consecutive days starting 3 days before paclitaxel administration and continuing for 11 days after the first administration of […]
Induction of neuropathy by paclitaxel
Rats received 4 once daily intraperitoneal (i.p.) injections of paclitaxel (Tocris, Italy) (2 mg/kg/day i.p.; cumulative dose of 8 mg/kg i.p.) or vehicle (saline, 1ml/kg/day i.p.), administered on alternate days (days 0, 2, 4, and 6) as descr ibed 4. […]
Pac+Saline group. […] Data are expressed as […]

[2] = test system: IENFs (PGP9.5); experiment: Oxaliplatin-induced loss of IENFs, PGP9.5 immunofluorescence of paw sections; format: in vivo, male Wistar rats; conditions: 30 mg/kg os, rat paw sections
Procedure: Animals were sacrificed and a biopsy (3 mm) was taken from pad of the right hind paw. Biopsies were immediately placed in Zamboni’s fixative, where they were left at 4 °C. Tissues were then transferred to 20% sucrose for at least 24 h and used for immunohistochemistry analysis. Specimens were frozen in Optimal Cutting Temperature compound (OCT, Sakura Finetek Inc, CA, USA) and sliced into 20 μm thick serial coronal sections by cryostat AMES LAB-TEK (Westmont, Illinois, USA). […]
Five slices were examined for each animal. For each slide, 4 fields were counted. For quantitative evaluation of IL-8/CINC-1 (the homolog of IL-8 in rat) and […], photomicrographs for each condition were analysed by ImageJ software (National Institutes of Health, Bethesda, MD, USA) as previously described. […] The signal was first measured on the tissue in an area devoid of signal at visual inspection and assumed as background; the threshold was then set at 1.5 times the background and the surface area and mean grey intensity were measured for all areas above the threshold. […]

[3] = biological target: T1, hERG channel (Homo sapiens, UniProt Q12809); experiment: hERG inhibition, automated patch clamp (QPatch 16) in CHO-K1 cells; format: cell-based; conditions: tested at 0.01-1 mM
T1 construct: host or cells: CHO-K1
Procedure: (§1) mM Tris-HCl (pH 8.0), 1.98 mM phenol and 1.02 µM hematine. Thereafter, the reaction was initiated by adding 4 µM (COX1) or 2 µM (COX2) of arachidonic acid and the mixture was incubated for 5 min at RT. For basal control measurements, arachidonic acid was omitted from the reaction mixture. Following incubation, t he reaction was stopped by the addition of 1 M HCl then 1 M Tris/HCl (pH 8.0) followed by cooling to 4°C.
(§2) The fluorescence acceptor (d2 labeled PGE2) and the fluorescence donor (anti -PGE2 antibody labeled with europium Cryptate) were then added. After 120 min, the fluorescence transfer corresponding to the amount of residual PGE2 was measured at λex=337 nm, λem=620 nm and λem=665 nm using a microplate reader (Envision, Perkin Elmer). The enzyme activity was determined by dividing the signal measured at 665 nm by that measured at 620 nm (ratio). The results were expressed as a percent age inhibition of the control enzyme activity. The standard inhibitory reference compound was Diclofenac, which was tested in each experiment at several concentrations to obtain an inhibition curve from which its IC50 value was calculated. […]
The human ether-a-go-go related gene (hERG) inhibition assay was performed by Eurofins Panlabs Inc, USA. […] Single cell ionic currents were measured in the automated patch clamp configuration at room temperature by using QPatch 16 in strument. […]

[4] = test system: acetylated α-tubulin; experiment: Acetylated α-tubulin in F11-derived neurons (immunofluorescence, western blotting); format: cell-based; conditions: 24 h
[5] = test system: IL-8-induced hPMN chemotaxis; conditions: read-out: IC50 (CXCL8 / IL-8-induced hPMN chemotaxis); hPMN pre-incubated 15 min at 37°C, migration 45 min
Procedure: Chemokines were from PeproTech (London, UK). Chemicals and cell culture reagents were from Sigma Aldrich (Saint Louis, MI, USA).
Cell isolation and culture
Human mononuclear cells and PMNs were obtained from buffy coats of heparinized peripheral
blood from adult healthy volunteers courtesy of Centro Trasfusionale, Ospedale S. Salvatore,
L’Aquila, Italy. Ethical clearance was obtained to perform these experiments. Human PMNs were
prepared to 99% purity by dextran sedimentation followed by hypotonic lysis of contaminating red
blood cells as previously described 1. PMNs were washed once with saline and then resuspended at
1.5 x 10^6/ml in HBSS for migration assay. Cell viability, as measured by Trypan Blue dye exclusion, was greater than 98%.
Migration of human PMNs was evaluated by microchamber technique in a 48-well
microchemotaxis chamber, as previously described 2. Briefly, 25 µl of control medium (PBS for
monocytes and HBSS for PMNs) or chemoattractant (CXCL1, CXCL8) solutions were seeded in
the lower compartment of the chemotaxis chamber. Fifty µl of cell suspension (1.5 x 10^6/ml) pre-
vehicle were seeded in the upper compartment. The two compartments were separated by 5 µm pre-size polycarbonate filter (polyvinylpyrrolidone-free for PMN chemotaxis). The chamber was […]
immersion fields at high magnification (100X; Zeiss microscope) were counted after sample

[6] = biological target: T2, human COX2 (Homo sapiens, UniProt P35354); experiment: COX2 assay, PGE2 formation from arachidonic acid, recombinant enzyme; format: biochemical
T2 construct: host or cells: Sf-9
Procedure: (§3) Protein binding in human, dog and rat plasma […]
(§4) in DMSO at a final concentration of 2 mM. […]
(§5) plasma to obtain a final concentration of 10 µM. Human, dog and rat plasma (200 µL) in triplicate […]
(§6) vials for LC-MS/MS analysis. […]
as §1, §2

[7] = biological target: T3, human COX1 (Homo sapiens, UniProt P23219); experiment: COX1 assay, PGE2 formation from arachidonic acid, recombinant enzyme; format: biochemical
T3 construct: host or cells: Sf-9
Procedure: as §3, §4, §5, §6, §1, §2

T2 sequence (P35354 18-604): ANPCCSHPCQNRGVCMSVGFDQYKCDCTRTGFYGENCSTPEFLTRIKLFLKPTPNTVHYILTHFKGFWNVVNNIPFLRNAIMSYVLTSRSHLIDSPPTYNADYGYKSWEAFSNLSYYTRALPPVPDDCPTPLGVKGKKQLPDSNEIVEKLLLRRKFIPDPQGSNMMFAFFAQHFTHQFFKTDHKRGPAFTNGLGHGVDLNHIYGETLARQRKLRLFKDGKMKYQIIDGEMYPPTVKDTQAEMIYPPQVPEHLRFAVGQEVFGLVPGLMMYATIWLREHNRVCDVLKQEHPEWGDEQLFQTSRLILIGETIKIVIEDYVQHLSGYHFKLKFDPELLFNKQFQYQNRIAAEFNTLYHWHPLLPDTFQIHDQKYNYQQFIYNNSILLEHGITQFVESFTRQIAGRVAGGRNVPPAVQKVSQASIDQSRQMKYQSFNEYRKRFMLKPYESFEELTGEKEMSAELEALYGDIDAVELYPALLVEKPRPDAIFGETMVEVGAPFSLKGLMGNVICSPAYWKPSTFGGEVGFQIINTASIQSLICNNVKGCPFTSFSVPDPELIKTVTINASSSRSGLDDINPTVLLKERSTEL
T3 sequence (P23219 24-599): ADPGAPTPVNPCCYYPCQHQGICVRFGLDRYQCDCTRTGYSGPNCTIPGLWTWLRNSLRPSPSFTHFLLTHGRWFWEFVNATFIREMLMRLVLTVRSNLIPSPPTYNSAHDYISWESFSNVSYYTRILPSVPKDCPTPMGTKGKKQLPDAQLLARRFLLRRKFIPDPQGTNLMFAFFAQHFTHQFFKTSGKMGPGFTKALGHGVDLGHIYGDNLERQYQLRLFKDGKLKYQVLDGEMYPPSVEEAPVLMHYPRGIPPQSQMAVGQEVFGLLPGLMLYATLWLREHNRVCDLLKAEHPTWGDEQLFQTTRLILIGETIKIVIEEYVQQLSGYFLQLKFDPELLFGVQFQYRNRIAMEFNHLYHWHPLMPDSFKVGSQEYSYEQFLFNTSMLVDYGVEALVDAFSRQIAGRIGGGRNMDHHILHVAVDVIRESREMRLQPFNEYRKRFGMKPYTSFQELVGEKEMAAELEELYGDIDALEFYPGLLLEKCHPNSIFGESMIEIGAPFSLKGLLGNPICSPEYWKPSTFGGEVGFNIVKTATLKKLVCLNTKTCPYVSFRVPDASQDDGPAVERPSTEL
T1 sequence (Q12809 whole entry): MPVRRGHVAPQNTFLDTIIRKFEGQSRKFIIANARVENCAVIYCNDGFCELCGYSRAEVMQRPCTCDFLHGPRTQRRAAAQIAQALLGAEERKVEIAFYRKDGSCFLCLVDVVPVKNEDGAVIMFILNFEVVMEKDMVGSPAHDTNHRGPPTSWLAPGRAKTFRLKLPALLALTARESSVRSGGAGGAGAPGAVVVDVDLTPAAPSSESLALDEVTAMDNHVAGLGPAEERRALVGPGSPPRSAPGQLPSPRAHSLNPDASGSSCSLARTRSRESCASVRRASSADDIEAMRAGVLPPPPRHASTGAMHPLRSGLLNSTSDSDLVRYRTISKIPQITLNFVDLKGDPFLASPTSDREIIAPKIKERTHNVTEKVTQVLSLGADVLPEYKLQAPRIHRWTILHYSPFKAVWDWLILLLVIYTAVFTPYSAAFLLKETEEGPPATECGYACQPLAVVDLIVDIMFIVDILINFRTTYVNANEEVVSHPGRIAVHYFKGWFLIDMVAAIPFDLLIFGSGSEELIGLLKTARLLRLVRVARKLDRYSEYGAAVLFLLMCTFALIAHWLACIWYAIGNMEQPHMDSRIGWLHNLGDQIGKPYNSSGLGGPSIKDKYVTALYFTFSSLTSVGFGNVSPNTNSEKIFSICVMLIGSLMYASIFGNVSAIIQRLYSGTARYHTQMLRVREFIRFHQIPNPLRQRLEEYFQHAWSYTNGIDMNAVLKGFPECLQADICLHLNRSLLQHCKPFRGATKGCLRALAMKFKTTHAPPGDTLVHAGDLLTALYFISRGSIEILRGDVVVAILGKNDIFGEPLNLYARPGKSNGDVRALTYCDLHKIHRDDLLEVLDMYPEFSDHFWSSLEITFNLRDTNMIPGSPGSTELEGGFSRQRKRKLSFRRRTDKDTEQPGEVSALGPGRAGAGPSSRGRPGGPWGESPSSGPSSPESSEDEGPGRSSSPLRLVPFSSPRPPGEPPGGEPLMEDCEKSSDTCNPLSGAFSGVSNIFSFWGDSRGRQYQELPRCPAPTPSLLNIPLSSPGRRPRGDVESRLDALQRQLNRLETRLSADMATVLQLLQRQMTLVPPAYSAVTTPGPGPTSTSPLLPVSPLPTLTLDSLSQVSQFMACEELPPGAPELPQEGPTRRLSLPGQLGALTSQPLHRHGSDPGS

## CC(C)(C(=O)O)c1ccc(Nc2nc(C(F)(F)F)cs2)cc1 [DF2726A]
[1]
  Effect on paclitaxel-induced mechanical and cold allodynia: prevented
[2]
  Effect on oxaliplatin-induced loss of IENFs (PGP9.5): preventing the loss of epidermal innervation
[3]
  IC50: > 1000 µM
[4]; 1 µM, immunofluorescence
  Acetylated α-tubulin in neurons treated with DF2726A alone: moderately present
[4]; DF2726A 1 µM + oxaliplatin 20 µM
  Acetylated α-tubulin in oxaliplatin-treated neurons, combination with DF2726A: counteracts chemotherapy-mediated effects; also recorded: comparable to that of control cells
[4]; DF2726A + paclitaxel 10 nM
  Acetylated α-tubulin in paclitaxel-treated neurons, combination with DF2726A: The same effect was observed; also recorded: comparable to that of control cells
[5]
  IC50: 0.01 ± 0.005 µM
[6]
  COX 2 Inhibition (50 µM): did not inhibit; also recorded: No Inhibition observed
[7]
  COX 1 Inhibition (50 µM): did not inhibit; also recorded: No Inhibition observed
